Results taken from patent US4161598A, “1-Oxygenated-2,6-methano-3-benzazocines” (Sterling Drug Inc., priority 1977, dated 1979).
Where a name gives a salt, the structure may show the parent alone. Read-outs that look alike come from different tables or passages of the source.

Experiments:
acetylcholine = test: Anti-acetylcholine Writhing Test; type: in vivo, mice; conditions: subcutaneous; for ED50: Mus musculus, sc, 20 min, read-out: Subcutaneous ED50 (95% Confidence Limits)
Experimental: This response has also been called writhing. Animals are pretreated with test compounds (20 minutes for both subcutaneous and oral routes) and observed for two minutes immediately following the administration of acetylcholine. Mice not responding during the two-minute observation period are scored protected while those responding one or more times are scored not protected. Test compounds are screened at doses of 75 and 25 mg./kg. subcutaneously or 150 and 50 mg./kg. orally. […] ED50 values for active compounds are estimated by probit analysis of quantal scores for 4 or more dosage levels using 15 animals per dose. Vehicle-pretreated control animals are tested concurrently with each run of 15 experimental animals.

phenazocine = test: Tail-flick Antagonist Test against phenazocine; conditions: for ED50: Rattus norvegicus, sc, 10 min, read-out: Subcutaneous AD50 (95% Confidence Limits) Against Phenazocine
meperidine = test: Tail-flick Antagonist Test against meperidine; conditions: Rattus norvegicus, sc, 10 min, read-out: Subcutaneous AD50 (95% Confidence Limits) Against Meperidine

SMILES | ED50 (acetylcholine; form tested not given) | ED50 (phenazocine) | further results
CCC[C@]12CCN(CC3CC3)[C@H](C(=O)c3ccc(O)cc31)[C@@H]2C (relative stereo) [Example 32C, 1,2,3,4,5,6-hexahydro-1-oxo-3-cyclopropylmethyl-8-hydroxy-6(eq)-propyl-11(ax)-methyl-2,6-methano-3-benzazocine] | 1.5 mg/kg |  | 
C=CCN1CC[C@@]2(C)c3cc(O)ccc3C(=O)[C@@H]1[C@@H]2C (relative stereo) [Example 16, 1,2,3,4,5,6-hexahydro-1-oxo-3-allyl-8-hydroxy-6(eq),11(ax)-dimethyl-2,6-methano-3-benzazocine] | 1.5 mg/kg | 2.2 mg/kg | 
CCC(=O)Oc1ccc2c(c1)[C@]1(C)CCN(CC3CC3)[C@H](C2=O)[C@@H]1C (relative stereo) [Example 3, 1,2,3,4,5,6-hexahydro-1-oxo-3-cyclopropylmethyl-8-propionyloxy-6(eq),11(ax)-dimethyl-2,6-methano-3-benzazocine hydrochloride] |  | 6 mg/kg | % effect (acetylcholine; 0.1 mg./kg.): 20%; % effect (acetylcholine; 1 mg./kg.): 27%; % effect (acetylcholine; 10 mg./kg.): 7%; % effect (acetylcholine; 100 mg./kg.): 47%
CC(=O)Oc1ccc2c(c1)[C@]1(C)CCN(CC3CC3)[C@H](C2=O)[C@@H]1C (relative stereo) [Example 2, 1,2,3,4,5,6-hexahydro-1-oxo-3-cyclopropylmethyl-8-acetoxy-6(eq),11(ax)-dimethyl-2,6-methano-3-benzazocine hydrochloride] |  | 3 mg/kg | ED50 (acetylcholine; hydrochloride salt): 0.14 mg/kg
CC(C)C(=O)Oc1ccc2c(c1)[C@]1(C)CCN(CC3CC3)[C@H](C2=O)[C@@H]1C (relative stereo) [Example 6, 1,2,3,4,5,6-hexahydro-1-oxo-3-cyclopropylmethyl-8-isobutyryloxy-6(eq),11(ax)-dimethyl-2,6-methano-3-benzazocine] | 0.09 mg/kg | 7 mg/kg | 
C[C@H]1[C@H]2C(=O)c3ccc(OC(=O)c4ccc(C(F)(F)F)cc4)cc3[C@]1(C)CCN2CC1CC1 (relative stereo) [Example 13, 1,2,3,4,5,6-hexahydro-1-oxo-3-cyclopropylmethyl-8-(p-trifluoromethylbenzoyloxy)-6(eq),11(ax)-dimethyl-2,6-methano-3-benzazocine] | 0.05 mg/kg |  | 
C[C@H]1[C@H]2C(=O)c3ccc(OC(=O)c4ccccc4)cc3[C@]1(C)CCN2CC1CC1 (relative stereo) [Example 9, 1,2,3,4,5,6-hexahydro-1-oxo-3-cyclopropylmethyl-8-benzoyloxy-6(eq),11(ax)-dimethyl-2,6-methano-3-benzazocine] | 0.07 mg/kg | 14 mg/kg | 
C[C@H]1[C@H]2C(=O)c3ccc(OC(=O)C(C)(C)C)cc3[C@]1(C)CCN2CC1CC1 (relative stereo) [Example 5, 1,2,3,4,5,6-hexahydro-1-oxo-3-cyclopropylmethyl-8-pivalyloxy-6(eq),11(ax)-dimethyl-2,6-methano-3-benzazocine] | 0.06 mg/kg | 38 mg/kg | 
C[C@H]1[C@H]2C(=O)c3ccc(O)cc3[C@]1(C)CCN2CC1CC1 [Example 26C, 2S,6R,11R-1,2,3,4,5,6-hexahydro-1-oxo-3-cyclopropylmethyl-8-hydroxy-6(eq),11(ax)-dimethyl-2,6-methano-3-benzazocine] |  | 2.4 mg/kg | ED50 (acetylcholine; methanesulfonate salt): 0.11 mg/kg
COc1cccc(C(=O)Oc2ccc3c(c2)[C@]2(C)CCN(CC4CC4)[C@H](C3=O)[C@@H]2C)c1 (relative stereo) [Example 11, 1,2,3,4,5,6-hexahydro-1-oxo-3-cyclopropylmethyl-8-(m-anisoyloxy)-6(eq),11(ax)-dimethyl-2,6-methano-3-benzazocine hydrochloride] | 0.1 mg/kg |  | 
CC[C@H]1[C@H]2C(=O)c3ccc(O)cc3[C@]1(C)CCN2CC1CC1 (relative stereo) [Example 33E, 1,2,3,4,5,6-hexahydro-1-oxo-3-cyclopropylmethyl-8-hydroxy-6(eq)-methyl-11-(ax)-ethyl-2,6-methano-3-benzazocine] | 0.47 mg/kg | 0.17 mg/kg | 
CCCN1CC[C@@]2(C)c3cc(O)ccc3C(=O)[C@@H]1[C@@H]2C (relative stereo) [Example 15, 1,2,3,4,5,6-hexahydro-1-oxo-3-propyl-8-hydroxy-6(eq),11(ax)-dimethyl-2,6-methano-3-benzazocine] | 3.2 mg/kg | 2.8 mg/kg | 
C=CCN1CC[C@@]2(CC)c3cc(O)ccc3C(=O)[C@@H]1[C@@H]2C (relative stereo) [Example 37, 1,2,3,4,5,6-hexahydro-3-allyl-1-oxo-8-hydroxy-6(eq)-ethyl-11(ax)-methyl-2,6-methano-3-benzazocine] | 2.3 mg/kg | 6.3 mg/kg | 
CC[C@H]1[C@H]2C(=O)c3ccc(O)cc3[C@]1(CC)CCN2CC1CC1 (relative stereo) [Example 31C, 1,2,3,4,5,6-hexahydro-1-oxo-3-cyclopropylmethyl-8-hydroxy-6(eq),11(ax)-diethyl-2,6-methano-3-benzazocine] |  | 0.48 mg/kg | ED50 (acetylcholine; methanesulfonate salt): 0.15 mg/kg
C[C@@H]1[C@@H]2C(=O)c3ccc(O)cc3[C@@]1(C)CCN2CC1CC1 [Example 26D, dextro-rotatory 2S,6R,11R-1,2,3,4,5,6-hexahydro-1-oxo-3-cyclopropylmethyl-8-hydroxy-6(eq),11(ax)-dimethyl-2,6-methano-3-benzazocine] |  |  | narcotic antagonist effect against phenazocine (phenazocine; 10 mg./kg. subcutaneously, methanesulfonic salt, in words): inactive; % effect against phenazocine (phenazocine; 80 mg./kg. subcutaneously, methanesulfonic salt): 32%; % effect (acetylcholine; 25 mg./kg., methanesulfonate salt): 33%; % effect (acetylcholine; 75 mg./kg., methanesulfonate salt): 93%
C[C@H]1[C@H]2[C@H](O)c3ccc(O)cc3[C@]1(C)CCN2CC1CC1 (relative stereo) [Example 18, 1,2,3,4,5,6-hexahydro-1(eq),8-dihydroxy-3-cyclopropylmethyl-6(eq), 11(ax)-dimethyl-2,6-methano-3-benzazocine hydrochloride] | 10 mg/kg |  | ED50 (meperidine): 11 mg/kg
COc1ccc(C(=O)Oc2ccc3c(c2)[C@]2(C)CCN(CC4CC4)[C@H](C3=O)[C@@H]2C)cc1 (relative stereo) [Example 10, 1,2,3,4,5,6-hexahydro-1-oxo-3-cyclopropylmethyl-8-(p-anisoyloxy)-6(eq),11(ax)-dimethyl-2,4-methano-3-benzazocine] | 0.1 mg/kg |  | 
CCCC(=O)Oc1ccc2c(c1)[C@]1(C)CCN(CC3CC3)[C@H](C2=O)[C@@H]1C (relative stereo) [Example 4, 1,2,3,4,5,6-hexahydro-1-oxo-3-cyclopropylmethyl-8-butyryloxy-6(eq),11(ax)-dimethyl-2,6-methano-3-benzazocine hydrochloride] | 0.14 mg/kg | 6.2 mg/kg | 
C=CCN1CC[C@@]2(C)c3cc(O)ccc3[C@@H](O)[C@@H]1[C@@H]2C (relative stereo) [Example 17, 1,2,3,4,5,6-hexahydro-1(eq),8-dihydroxy-3-allyl-6(eq),11(ax)-dimethyl-2,6-methano-3-benzazocine] | 4.8 mg/kg |  | ED50 (meperidine): 0.98 mg/kg
CCCN1CC[C@@]2(CC)c3cc(O)ccc3C(=O)[C@@H]1[C@@H]2C (relative stereo) [Example 36, 1,2,3,4,5,6-hexahydro-3-propyl-1-oxo-8-hydroxy-6(eq)-ethyl-11(ax)-methyl-2,6-methano-3-benzazocine methanesulfonate] | 1 mg/kg | 6.2 mg/kg | 
CC(C)CC(=O)Oc1ccc2c(c1)[C@]1(C)CCN(CC3CC3)[C@H](C2=O)[C@@H]1C (relative stereo) [Example 7, 1,2,3,4,5,6-hexahydro-1-oxo-3-cyclopropylmethyl-8-isovaleryloxy-6(eq),11(ax)-dimethyl-2,6-methano-3-benzazocine] | 0.06 mg/kg | 5.2 mg/kg | 
Cc1ccc(C(=O)Oc2ccc3c(c2)[C@]2(C)CCN(CC4CC4)[C@H](C3=O)[C@@H]2C)cc1 (relative stereo) [Example 12, 1,2,3,4,5,6-hexahydro-1-oxo-3-cyclopropylmethyl-8-(p-toluyloxy)-6(eq),11(ax)-dimethyl-2,6-methano-3-benzazocine] | 0.06 mg/kg |  | 
CC[C@@]12CCN(CC3CC3)[C@@H](C1)C(=O)c1ccc(O)cc12 (relative stereo) [Example 28C, 1,2,3,4,5,6-hexahydro-1-oxo-3-cyclopropylmethyl-8-hydroxy-6(eq)-ethyl-2,6-methano-3-benzazocine hydrochloride] | 0.38 mg/kg | 14 mg/kg | 
CC[C@]12CCN(CC3CC3)[C@H](C(=O)c3ccc(O)cc31)[C@H]2C (relative stereo) [Example 30C, 1,2,3,4,5,6-hexahydro-1-oxo-3-cyclopropylmethyl-8-hydroxy-6(eq)-ethyl-11(eq)-methyl-2,6-methano-3-benzazocine hydrochloride] | 2.1 mg/kg | 4.2 mg/kg | 
C[C@@H]1[C@H]2C(=O)c3ccc(O)cc3[C@]1(C)CCN2CC1CC1 (relative stereo) [Example 27, 1,2,3,4,5,6-hexahydro-1-oxo-3-cyclopropylmethyl-8-hydroxy-6(eq),11(eq)-dimethyl-2,6-methano-3-benzazocine hydrochloride hemiethanolate] | 30 mg/kg | 2.8 mg/kg | 
C[C@H]1[C@H]2C(=O)c3ccc(OC(=O)CC(C)(C)C)cc3[C@]1(C)CCN2CC1CC1 (relative stereo) [Example 8, 1,2,3,4,5,6-hexahydro-1-oxo-3-cyclopropylmethyl-8-(3,3-dimethylbutanoyloxy)-6(eq),11(ax)-dimethyl-2,6-methano-3-benzazocine] | 0.08 mg/kg |  | 
